# Results reported in PubChem BioAssay (NCI).
#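 Test compounds were applied to cells in 96-well plates for 48 hours at 5 doses. GI50 marks 50% less growth. The concentration for full growth arrest is given as TGI.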
# Legend:
# Test in all cases: NCI anticancer screen, dose series, 48 h
# NCI-H23 lung = test system: NCI-H23 lung
# NCI-H460 lung = test system: NCI-H460 lung
# NCI-H522 lung = test system: NCI-H522 lung
# NCI/ADR-RES ovarian = test system: NCI/ADR-RES ovarian
# OVCAR-3 ovarian = test system: OVCAR-3 ovarian
# OVCAR-4 ovarian = test system: OVCAR-4 ovarian
# OVCAR-5 ovarian = test system: OVCAR-5 ovarian
# OVCAR-8 ovarian = test system: OVCAR-8 ovarian
# PC-3 prostate = test system: PC-3 prostate
# RPMI-8226 leukemia = test system: RPMI-8226 leukemia
# RXF 393 renal = test system: RXF 393 renal
# SF-268 CNS = test system: SF-268 CNS
# SF-295 CNS = test system: SF-295 CNS
# SF-539 CNS = test system: SF-539 CNS
# SK-MEL-2 melanoma = test system: SK-MEL-2 melanoma
# SK-MEL-28 melanoma = test system: SK-MEL-28 melanoma
# SK-MEL-5 melanoma = test system: SK-MEL-5 melanoma
# SK-OV-3 ovarian = test system: SK-OV-3 ovarian
# SN12C renal = test system: SN12C renal
# SNB-19 CNS = test system: SNB-19 CNS
# SNB-75 CNS = test system: SNB-75 CNS
# SR leukemia = test system: SR leukemia
# SW-620 colon = test system: SW-620 colon
# T-47D breast = test system: T-47D breast
# TK-10 renal = test system: TK-10 renal
# U251 CNS = test system: U251 CNS
# UACC-257 melanoma = test system: UACC-257 melanoma
# UACC-62 melanoma = test system: UACC-62 melanoma
# UO-31 renal = test system: UO-31 renal
compound,measurement,setting,value
CCc1nn2c(C)cc(C)nc2c1Cc1ccc(/C=C/CN2CCN(CCOCCOCCN3CCN(C/C=C/c4ccc(Cc5c(CC)nn6c(C)cc(C)nc56)cc4)CC3)CC2)cc1,GI50,NCI-H23 lung,1.86 µM
same,TGI,NCI-H23 lung,3.65 µM
same,GI50,NCI-H460 lung,1.88 µM
same,TGI,NCI-H460 lung,3.53 µM
same,GI50,NCI-H522 lung,1.7 µM
same,TGI,NCI-H522 lung,3.39 µM
same,GI50,NCI/ADR-RES ovarian,2.74 µM
same,TGI,NCI/ADR-RES ovarian,7.88 µM
same,GI50,OVCAR-3 ovarian,2.58 µM
same,TGI,OVCAR-3 ovarian,7.12 µM
same,GI50,OVCAR-4 ovarian,1.8 µM
same,TGI,OVCAR-4 ovarian,3.86 µM
same,GI50,OVCAR-5 ovarian,4.8 µM
same,TGI,OVCAR-5 ovarian,9.34 µM
same,GI50,OVCAR-8 ovarian,1.92 µM
same,TGI,OVCAR-8 ovarian,3.92 µM
same,GI50,PC-3 prostate,2.81 µM
same,TGI,PC-3 prostate,7.76 µM
same,GI50,RPMI-8226 leukemia,1.87 µM
same,TGI,RPMI-8226 leukemia,4.33 µM
same,GI50,RXF 393 renal,1.68 µM
same,TGI,RXF 393 renal,3.97 µM
same,GI50,SF-268 CNS,2.94 µM
same,TGI,SF-268 CNS,8.26 µM
same,GI50,SF-295 CNS,2.95 µM
same,TGI,SF-295 CNS,7.6 µM
same,GI50,SF-539 CNS,1.72 µM
same,TGI,SF-539 CNS,3.19 µM
same,GI50,SK-MEL-2 melanoma,5.35 µM
same,TGI,SK-MEL-2 melanoma,9.95 µM
same,GI50,SK-MEL-28 melanoma,1.75 µM
same,TGI,SK-MEL-28 melanoma,3.2 µM
same,GI50,SK-MEL-5 melanoma,1.87 µM
same,TGI,SK-MEL-5 melanoma,3.52 µM
same,GI50,SK-OV-3 ovarian,5.75 µM
same,TGI,SK-OV-3 ovarian,10.5 µM
same,GI50,SN12C renal,1.86 µM
same,TGI,SN12C renal,3.99 µM
same,GI50,SNB-19 CNS,2.94 µM
same,TGI,SNB-19 CNS,7.95 µM
same,GI50,SNB-75 CNS,4.09 µM
same,TGI,SNB-75 CNS,8.18 µM
same,GI50,SR leukemia,1.81 µM
same,TGI,SR leukemia,4.6 µM
same,GI50,SW-620 colon,1.7 µM
same,TGI,SW-620 colon,3.31 µM
same,GI50,T-47D breast,1.74 µM
same,TGI,T-47D breast,3.74 µM
same,GI50,TK-10 renal,5.72 µM
same,TGI,TK-10 renal,10.4 µM
same,GI50,U251 CNS,1.85 µM
same,TGI,U251 CNS,3.76 µM
same,GI50,UACC-257 melanoma,1.74 µM
same,TGI,UACC-257 melanoma,3.4 µM
same,GI50,UACC-62 melanoma,1.74 µM
same,TGI,UACC-62 melanoma,3.3 µM
same,GI50,UO-31 renal,1.42 µM
same,TGI,UO-31 renal,3.05 µM
